Reference: ChEMBL document CHEMBL3045014, “Synthesis and biological activity of novel anti-juvenile hormone agents” (J Pestic Sci, 2008)
Activity calls are given as the source filed them. The calls are words filed in the database; no cut-off is given here.

What was measured:
Format in all cases: functional, organism-based
[1] = tested on: Bombyx mori; assay: Induction of precocious metamorphosis in newly-molted fourth-instar larvae of Bombyx mori
[2] = tested on: Bombyx mori; assay: Induction of precocious metamorphosis in fourth-instar larvae of Bombyx mori
[3] = tested on: Bombyx mori; assay: Induction of precocious metamorphosis in 24-hr old 3rd-instar larvae of Bombyx mori
[4] = tested on: Bombyx mori; assay: Induction of precocious metamorphosis in Bombyx mori
[5] = tested on: Bombyx mori; assay: Induction of precocious metamorphosis in fourth-instar larvae of Bombyx mori at 10 ug
[6] = tested on: Bombyx mori; assay: Induction of precocious metamorphosis in fourth-instar larvae of Bombyx mori at 0.1 ug
[7] = tested on: Bombyx mori; assay: Induction of precocious metamorphosis in newly-molted fourth-instar larvae of Bombyx mori at 1 ug
[8] = tested on: Bombyx mori; assay: Induction of precocious metamorphosis in fourth-instar larvae of Bombyx mori at 40 ug
[9] = tested on: Bombyx mori; assay: Induction of precocious metamorphosis in fourth-instar larvae of Bombyx mori in presence of 20-hydroxyecdysone
[10] = tested on: Bombyx mori; assay: Induction of precocious metamorphosis in fourth-instar larvae of Bombyx mori in presence of JH agonist methoprene

`CCOC(=O)c1ccc(OCC(CC)OC(=O)C(C)(C)C)cc1` (stereo not given) was tested, and the Activity [1] was “inactive”, the Activity [2] was “Active” and the Activity [3] was “inactive”.
In the case of `CCCCC(COc1ccc(C(=O)OCC)cc1)Oc1ccccc1` (stereo not given), the Activity [1] is reported as “Active” and the Activity [4] is reported as “Active”.
For `CCCC[C@@H](COc1ccc(C(=O)OCC)cc1)Cc1ccccc1`, the Activity [5] was “inactive”, the Activity [6] was “Active” and the Activity [7] was “Active”. The Activity [8] was “inactive”.
With `CCOC(=O)c1ccc(OCC(Oc2ccc(C)nc2)C(C)(C)C)cc1` (stereo not given) the Activity [4] was “Active”.
In the case of `CCOC(=O)c1ccc(OCC(CC)Oc2ccc(C)nc2)cc1` (stereo not given), the Activity [4] is reported as “Active”.
For `CCCCCC(COc1ccc(C(=O)OCC)cc1)Cc1ccccc1` (stereo not given), the Activity [4] was “Active”.
In the case of `CCCCC(COc1ccc(C(=O)OCC)cc1)Cc1ccccc1` (racemic), the Activity [9] is reported as “Active”, the Activity [10] is reported as “inactive” and the Activity [7] is reported as “Active”. The Activity [1] was “Dose-dependent effect”, the Activity [2] was “Active” and the Activity [3] was “inactive”. For the same molecule, the Activity [4] was “Active”.
In the case of `CCCCC(COc1ccc(C(=O)OCC)cc1)Oc1ccc(C)nc1` (stereo not given), the Activity [1] is reported as “Active” and the Activity [4] is reported as “Active”.
With `CCCC[C@H](COc1ccc(C(=O)OCC)cc1)Cc1ccccc1` the Activity [5] was “inactive”, the Activity [6] was “Active” and the Activity [7] was “Active”. The Activity [8] was “inactive”.
